For the data set the following is noted: for aqueous solubility: pH 6.8.

≈ marks a conversion by molar mass, not a printed value. A value given as a limit tells only on which side of the number the result lay.

The record followed here is the Biogen ADME set (Fang et al. 2023).

Regarding `Cn1cnnc1-c1cccc(NS(=O)(=O)c2ccc3c(c2)OCCCO3)c1`, the MDR1-MDCK efflux ratio came out at 79.6; the intrinsic clearance, human liver microsomes turned out to be 56.6 mL/min/kg; the intrinsic clearance, rat liver microsomes is 180 mL/min/kg.
The like results for `OCCOc1ccccc1OCc1ncc(Cl)cc1Cl` were, in that order, 0.551, 48.5 mL/min/kg and 319 mL/min/kg.
In the same order, the values of `CC(C)Cc1cc(CN2CCN(S(=O)(=O)N3CCOCC3)CC2)n[nH]1` are 23.3, 21.5 mL/min/kg and 284 mL/min/kg.
Take `CC(=O)NC1CCC(NCCSc2ccc(C)cc2)CC1` (centres undefined): the MDR1-MDCK efflux ratio is 10.8; the intrinsic clearance, human liver microsomes is 64.4 mL/min/kg; the intrinsic clearance, rat liver microsomes is 499 mL/min/kg.
The aqueous solubility is the dissolved amount per volume that the medium holds. In the case of `CCc1nc(CC)n(Cc2nc(C)cs2)n1`, the MDR1-MDCK efflux ratio is 0.797; the intrinsic clearance, human liver microsomes is at most 4.74 mL/min/kg; the intrinsic clearance, rat liver microsomes worked out at 39.8 mL/min/kg; the aqueous solubility is 35.9 µg/mL (≈ 152 µM).
The like results for `NCc1cccc(C(=O)N2CCCC2)c1` were, in that order, 3.58, at most 4.74 mL/min/kg, at most 10.7 mL/min/kg and 25.4 µg/mL (≈ 124 µM).
The like results for `COc1ncccc1CNc1ncnc2c1cnn2C` were, in that order, 0.967, at most 4.74 mL/min/kg, 28.8 mL/min/kg and 46.6 µg/mL (≈ 172 µM).
The molecule `COc1cc(-c2cnc(NC3CC3)nc2-c2cccs2)nc(OC)n1` displayed an intrinsic clearance, human liver microsomes of 34.7 mL/min/kg and an intrinsic clearance, rat liver microsomes of 485 mL/min/kg.
Turning to `Fc1ccccc1CNc1nc(-c2ccccc2)no1`, the MDR1-MDCK efflux ratio was 0.605; the intrinsic clearance, human liver microsomes stood at 24.5 mL/min/kg; the intrinsic clearance, rat liver microsomes came to 131 mL/min/kg; the aqueous solubility was 3.51 µg/mL (≈ 13 µM).
The like results for `Cc1ccnc(-n2nccc2NC(=O)N2CCCN(C)CC2)c1` were, in that order, 2.95, 13.2 mL/min/kg, 169 mL/min/kg and 31.7 µg/mL (≈ 101 µM).
Regarding `O=C(O)c1ccc(CCC(=O)N2CCc3c(F)cc(F)cc3C2)cc1`, the MDR1-MDCK efflux ratio is 4.05; the intrinsic clearance, human liver microsomes is at most 4.74 mL/min/kg; the intrinsic clearance, rat liver microsomes is at most 10.7 mL/min/kg.
As for `CSc1ccc(CN(CCO)C(=O)CCc2cccc(F)c2)cc1`, the MDR1-MDCK efflux ratio was 0.961; the intrinsic clearance, human liver microsomes was determined as 151 mL/min/kg; the intrinsic clearance, rat liver microsomes is 2520 mL/min/kg; the aqueous solubility was 29.1 µg/mL (≈ 83.6 µM).
In turn, `Cc1cccc2c1Oc1nc(-c3ccccc3)[nH]c(=S)c1C2` returned an aqueous solubility of 0.33 µg/mL (≈ 1.08 µM).
`CC1CCC(O)(CSc2nncn2C(C)C)CC1` (centres undefined): the MDR1-MDCK efflux ratio stood at 0.85; the intrinsic clearance, human liver microsomes stood at 6.42 mL/min/kg; the intrinsic clearance, rat liver microsomes is 214 mL/min/kg.
`CC1CC(N)CCN1C(=O)c1cc(N2CCNC2=O)c(F)cc1F` (centres undefined): the MDR1-MDCK efflux ratio is 1.32; the fraction unbound, human plasma was 0.682; the intrinsic clearance, human liver microsomes is at most 4.74 mL/min/kg.
As to `Cc1nccc(-c2ccc(-c3noc(CN4CCOCC4)n3)cc2)n1`, the MDR1-MDCK efflux ratio stood at 0.677; the intrinsic clearance, human liver microsomes is at most 4.74 mL/min/kg; the intrinsic clearance, rat liver microsomes worked out at 106 mL/min/kg; the aqueous solubility stood at 61 µg/mL (≈ 181 µM).
As for `COc1cc(C)nc(N2CCN(c3ccc4ccccc4n3)CC2)n1`, the intrinsic clearance, human liver microsomes came to 36.2 mL/min/kg and the intrinsic clearance, rat liver microsomes was found to be 643 mL/min/kg.
Turning to `CNC(=O)c1sc2ncccc2c1[C@H]1CC[C@H](CNC(=O)COc2ccccc2)CC1`, the MDR1-MDCK efflux ratio was found to be 31; the intrinsic clearance, human liver microsomes was 103 mL/min/kg; the intrinsic clearance, rat liver microsomes was 1070 mL/min/kg; the aqueous solubility was determined as 91.2 µg/mL (≈ 208 µM).
In the case of `O=C(O)/C=C/c1ccc(Cn2ccnc2)cc1`, the MDR1-MDCK efflux ratio turned out to be 3; the intrinsic clearance, human liver microsomes is at most 4.74 mL/min/kg; the intrinsic clearance, rat liver microsomes is at most 10.7 mL/min/kg; the aqueous solubility came to 50.6 µg/mL (≈ 222 µM).
Take `Cc1ccc(C(N)=O)c(OCc2c(Cl)ccc3cccnc23)c1`: the MDR1-MDCK efflux ratio was 0.372 and the aqueous solubility was 0.61 µg/mL (≈ 1.87 µM).
As for `COc1ccc(NC(=O)CN2CCC(c3cc(-c4cnc(N)nc4)cc(C)n3)CC2)cc1`, the MDR1-MDCK efflux ratio worked out at 5.08; the intrinsic clearance, human liver microsomes was determined as 15.7 mL/min/kg; the intrinsic clearance, rat liver microsomes worked out at 245 mL/min/kg; the aqueous solubility was found to be 42.5 µg/mL (≈ 98.2 µM).
Consider `O=C(NC1CCNCC1)c1ccc2cn[nH]c2c1`, for which the fraction unbound, human plasma turned out to be 1; the fraction unbound, rat plasma is 0.511; the intrinsic clearance, human liver microsomes was found to be 16.1 mL/min/kg.
Take `COC(=O)c1cccc2c1CCCN2C(=O)c1ccc(F)cc1F`: the MDR1-MDCK efflux ratio was 0.708; the intrinsic clearance, human liver microsomes was 1150 mL/min/kg; the intrinsic clearance, rat liver microsomes was 2000 mL/min/kg.
On to `CCc1nnnn1Cc1noc2c1CCCC2`, for which the MDR1-MDCK efflux ratio was 0.792; the intrinsic clearance, human liver microsomes is at most 4.74 mL/min/kg; the intrinsic clearance, rat liver microsomes was found to be 60.7 mL/min/kg; the aqueous solubility came out at 23.2 µg/mL (≈ 99.6 µM).
Molecule `O=C(NCc1ccc(O)cc1)Nc1ccncc1F` had an intrinsic clearance, human liver microsomes of at most 4.74 mL/min/kg; an intrinsic clearance, rat liver microsomes of at most 10.7 mL/min/kg; an aqueous solubility of 37.8 µg/mL (≈ 145 µM).
Regarding `O=C(NCc1cccc2c1OCCCO2)c1cscn1`, the intrinsic clearance, human liver microsomes stood at 7.67 mL/min/kg and the intrinsic clearance, rat liver microsomes was 82.9 mL/min/kg.
In the case of `Cc1nc(Cc2ccccc2)sc1C(=O)Nc1cccc(-c2ccn[nH]2)c1`, the MDR1-MDCK efflux ratio amounted to 2.86; the intrinsic clearance, human liver microsomes was 30.4 mL/min/kg; the intrinsic clearance, rat liver microsomes is 406 mL/min/kg.
As for `CCc1noc(-c2ccc(CCN)cc2)n1`, the MDR1-MDCK efflux ratio was found to be 0.479; the intrinsic clearance, human liver microsomes stood at 394 mL/min/kg; the intrinsic clearance, rat liver microsomes was determined as 54.5 mL/min/kg; the aqueous solubility was 44.1 µg/mL (≈ 203 µM).
As to `N[C@H](Cc1c[nH]c2ccccc12)C(=O)N/N=C/c1ccc2nccnc2c1`, the MDR1-MDCK efflux ratio was determined as 13.4; the intrinsic clearance, human liver microsomes was found to be 17.2 mL/min/kg; the intrinsic clearance, rat liver microsomes came to 55.8 mL/min/kg; the aqueous solubility turned out to be 40.3 µg/mL (≈ 112 µM).
`COc1cccc(-c2nnn(-c3ncnc4sc5c(c34)CCC5)n2)c1`: the aqueous solubility came to 0.26 µg/mL (≈ 0.742 µM).
As to `CCCN(C(=O)c1ccccc1N)C(C)C`, the intrinsic clearance, human liver microsomes is at most 4.74 mL/min/kg and the intrinsic clearance, rat liver microsomes was determined as 342 mL/min/kg.
`COc1ccc(CCNCc2ccc(-c3ccccc3)o2)cc1OC`: the MDR1-MDCK efflux ratio was determined as 0.979; the intrinsic clearance, human liver microsomes is 63.8 mL/min/kg; the intrinsic clearance, rat liver microsomes was 1090 mL/min/kg; the aqueous solubility amounted to 74.3 µg/mL (≈ 220 µM).
In the same order, the values of `Cc1ccc(-c2noc3nc(C)cc(C(=O)O)c23)cc1` are 2.93, at most 4.74 mL/min/kg, at most 10.7 mL/min/kg and 74.3 µg/mL (≈ 277 µM).
`COc1c(C)cnc(CN(C)S(N)(=O)=O)c1C`: the MDR1-MDCK efflux ratio amounted to 1.91; the intrinsic clearance, human liver microsomes is at most 4.74 mL/min/kg; the intrinsic clearance, rat liver microsomes was 82 mL/min/kg; the aqueous solubility worked out at 30.6 µg/mL (≈ 118 µM).
